Reference: the CheMixHub viscosity set
± gives the uncertainty stated by the source.

Test: xn = mol fraction of the nth substance listed

## ClC(Cl)Cl + CC(C)=O
293.15 K, 101 kPa, x1 = 0.157
  viscosity: 0.3875 ± 0.01 mPa·s
293.15 K, 101 kPa, x1 = 0.362
  viscosity: 0.466 ± 0.012 mPa·s
293.15 K, 101 kPa, x1 = 0.483
  viscosity: 0.511 ± 0.014 mPa·s
293.15 K, 101 kPa, x1 = 0.609
  viscosity: 0.5471 ± 0.015 mPa·s
293.15 K, 101 kPa, x1 = 0.824
  viscosity: 0.5836 ± 0.015 mPa·s
293.15 K, 101 kPa, x2 = 0.112
  viscosity: 0.565 ± 0.006 mPa·s
293.15 K, 101 kPa, x2 = 0.2
  viscosity: 0.561 ± 0.006 mPa·s
293.15 K, 101 kPa, x2 = 0.3098
  viscosity: 0.543 ± 0.006 mPa·s
293.15 K, 101 kPa, x2 = 0.415
  viscosity: 0.523 ± 0.005 mPa·s
293.15 K, 101 kPa, x2 = 0.502
  viscosity: 0.495 ± 0.005 mPa·s
293.15 K, 101 kPa, x2 = 0.6075
  viscosity: 0.456 ± 0.005 mPa·s
293.15 K, 101 kPa, x2 = 0.715
  viscosity: 0.421 ± 0.005 mPa·s
293.15 K, 101 kPa, x2 = 0.81
  viscosity: 0.384 ± 0.004 mPa·s
293.15 K, 101 kPa, x2 = 0.9075
  viscosity: 0.349 ± 0.004 mPa·s
293.15 K, 101.33 kPa, x1 = 0.1193
  viscosity: 0.357 ± 0.009 mPa·s
293.15 K, 101.33 kPa, x1 = 0.2623
  viscosity: 0.408 ± 0.011 mPa·s
293.15 K, 101.33 kPa, x1 = 0.3723
  viscosity: 0.453 ± 0.012 mPa·s
293.15 K, 101.33 kPa, x1 = 0.5128
  viscosity: 0.508 ± 0.013 mPa·s
293.15 K, 101.33 kPa, x1 = 0.6064
  viscosity: 0.538 ± 0.014 mPa·s
293.15 K, 101.33 kPa, x1 = 0.7001
  viscosity: 0.56 ± 0.015 mPa·s
293.15 K, 101.33 kPa, x1 = 0.8577
  viscosity: 0.583 ± 0.015 mPa·s
293.16 K, 101 kPa, x1 = 0.1193
  viscosity: 0.357 ± 0.01 mPa·s
293.16 K, 101 kPa, x1 = 0.2623
  viscosity: 0.408 ± 0.011 mPa·s
293.16 K, 101 kPa, x1 = 0.3723
  viscosity: 0.453 ± 0.012 mPa·s
293.16 K, 101 kPa, x1 = 0.5128
  viscosity: 0.508 ± 0.014 mPa·s
293.16 K, 101 kPa, x1 = 0.6064
  viscosity: 0.538 ± 0.014 mPa·s
293.16 K, 101 kPa, x1 = 0.7001
  viscosity: 0.56 ± 0.015 mPa·s
293.16 K, 101 kPa, x1 = 0.8577
  viscosity: 0.583 ± 0.015 mPa·s
293.35 K, 101 kPa, x1 = 0.75
  viscosity: 0.6037 ± 0.016 mPa·s
293.45 K, 101 kPa, x1 = 0.5
  viscosity: 0.5307 ± 0.014 mPa·s
298.15 K, 101 kPa, x1 = 0.2
  viscosity: 0.353 ± 0.0052 mPa·s
298.15 K, 101 kPa, x1 = 0.4
  viscosity: 0.424 ± 0.0053 mPa·s
298.15 K, 101 kPa, x1 = 0.6
  viscosity: 0.486 ± 0.0054 mPa·s
298.15 K, 101 kPa, x1 = 0.8
  viscosity: 0.512 ± 0.0054 mPa·s
298.15 K, 101 kPa, x2 = 0.0555
  viscosity: 0.5334 ± 0.0055 mPa·s
298.15 K, 101 kPa, x2 = 0.112
  viscosity: 0.538 ± 0.006 mPa·s
298.15 K, 101 kPa, x2 = 0.1361
  viscosity: 0.5423 ± 0.0055 mPa·s
298.15 K, 101 kPa, x2 = 0.2
  viscosity: 0.534 ± 0.006 mPa·s
298.15 K, 101 kPa, x2 = 0.2192
  viscosity: 0.5338 ± 0.0055 mPa·s
298.15 K, 101 kPa, x2 = 0.2437
  viscosity: 0.536 ± 0.0055 mPa·s
298.15 K, 101 kPa, x2 = 0.3023
  viscosity: 0.5258 ± 0.0054 mPa·s
298.15 K, 101 kPa, x2 = 0.3098
  viscosity: 0.516 ± 0.005 mPa·s
298.15 K, 101 kPa, x2 = 0.3737
  viscosity: 0.508 ± 0.0053 mPa·s
298.15 K, 101 kPa, x2 = 0.415
  viscosity: 0.495 ± 0.005 mPa·s
298.15 K, 101 kPa, x2 = 0.4585
  viscosity: 0.4864 ± 0.005 mPa·s
298.15 K, 101 kPa, x2 = 0.496
  viscosity: 0.4726 ± 0.005 mPa·s
298.15 K, 101 kPa, x2 = 0.502
  viscosity: 0.47 ± 0.005 mPa·s
298.15 K, 101 kPa, x2 = 0.552
  viscosity: 0.4529 ± 0.0048 mPa·s
298.15 K, 101 kPa, x2 = 0.5688
  viscosity: 0.4495 ± 0.0047 mPa·s
298.15 K, 101 kPa, x2 = 0.6075
  viscosity: 0.434 ± 0.005 mPa·s
298.15 K, 101 kPa, x2 = 0.6721
  viscosity: 0.411 ± 0.0044 mPa·s
298.15 K, 101 kPa, x2 = 0.6793
  viscosity: 0.4052 ± 0.0044 mPa·s
298.15 K, 101 kPa, x2 = 0.6886
  viscosity: 0.4042 ± 0.0043 mPa·s
298.15 K, 101 kPa, x2 = 0.715
  viscosity: 0.402 ± 0.004 mPa·s
298.15 K, 101 kPa, x2 = 0.7302
  viscosity: 0.3926 ± 0.0042 mPa·s
298.15 K, 101 kPa, x2 = 0.7676
  viscosity: 0.3817 ± 0.0041 mPa·s
298.15 K, 101 kPa, x2 = 0.8067
  viscosity: 0.3628 ± 0.004 mPa·s
298.15 K, 101 kPa, x2 = 0.81
  viscosity: 0.367 ± 0.004 mPa·s
298.15 K, 101 kPa, x2 = 0.8196
  viscosity: 0.3551 ± 0.004 mPa·s
298.15 K, 101 kPa, x2 = 0.8757
  viscosity: 0.3425 ± 0.0038 mPa·s
298.15 K, 101 kPa, x2 = 0.9075
  viscosity: 0.334 ± 0.004 mPa·s
298.15 K, 101 kPa, x2 = 0.9182
  viscosity: 0.3261 ± 0.0037 mPa·s
298.15 K, 101 kPa, x2 = 0.9233
  viscosity: 0.3206 ± 0.0037 mPa·s
298.15 K, 101 kPa, x2 = 0.963
  viscosity: 0.3092 ± 0.0036 mPa·s
298.15 K, 101.33 kPa, x1 = 0.1483
  viscosity: 0.356 ± 0.009 mPa·s
298.15 K, 101.33 kPa, x1 = 0.2721
  viscosity: 0.4 ± 0.01 mPa·s
298.15 K, 101.33 kPa, x1 = 0.3885
  viscosity: 0.445 ± 0.012 mPa·s
298.15 K, 101.33 kPa, x1 = 0.4985
  viscosity: 0.485 ± 0.013 mPa·s
298.15 K, 101.33 kPa, x1 = 0.6363
  viscosity: 0.527 ± 0.014 mPa·s
298.15 K, 101.33 kPa, x1 = 0.7114
  viscosity: 0.543 ± 0.014 mPa·s
298.15 K, 101.33 kPa, x1 = 0.8834
  viscosity: 0.557 ± 0.014 mPa·s
298.16 K, 101 kPa, x1 = 0.1483
  viscosity: 0.356 ± 0.01 mPa·s
298.16 K, 101 kPa, x1 = 0.2721
  viscosity: 0.4 ± 0.011 mPa·s
298.16 K, 101 kPa, x1 = 0.3885
  viscosity: 0.445 ± 0.012 mPa·s
298.16 K, 101 kPa, x1 = 0.4985
  viscosity: 0.485 ± 0.013 mPa·s
298.16 K, 101 kPa, x1 = 0.6363
  viscosity: 0.527 ± 0.014 mPa·s
298.16 K, 101 kPa, x1 = 0.7114
  viscosity: 0.543 ± 0.014 mPa·s
298.16 K, 101 kPa, x1 = 0.8834
  viscosity: 0.557 ± 0.015 mPa·s
302.95 K, 101 kPa, x1 = 0.25
  viscosity: 0.3982 ± 0.011 mPa·s
303.15 K, 101 kPa, x2 = 0.112
  viscosity: 0.512 ± 0.005 mPa·s
303.15 K, 101 kPa, x2 = 0.2
  viscosity: 0.507 ± 0.005 mPa·s
303.15 K, 101 kPa, x2 = 0.3098
  viscosity: 0.488 ± 0.005 mPa·s
303.15 K, 101 kPa, x2 = 0.415
  viscosity: 0.468 ± 0.005 mPa·s
303.15 K, 101 kPa, x2 = 0.502
  viscosity: 0.447 ± 0.005 mPa·s
303.15 K, 101 kPa, x2 = 0.6075
  viscosity: 0.412 ± 0.004 mPa·s
303.15 K, 101 kPa, x2 = 0.715
  viscosity: 0.383 ± 0.004 mPa·s
303.15 K, 101 kPa, x2 = 0.81
  viscosity: 0.35 ± 0.004 mPa·s
303.15 K, 101 kPa, x2 = 0.9075
  viscosity: 0.322 ± 0.004 mPa·s
303.15 K, 101.33 kPa, x1 = 0.1041
  viscosity: 0.326 ± 0.009 mPa·s
303.15 K, 101.33 kPa, x1 = 0.1842
  viscosity: 0.352 ± 0.009 mPa·s
303.15 K, 101.33 kPa, x1 = 0.2689
  viscosity: 0.381 ± 0.01 mPa·s
303.15 K, 101.33 kPa, x1 = 0.3733
  viscosity: 0.424 ± 0.011 mPa·s
303.15 K, 101.33 kPa, x1 = 0.5487
  viscosity: 0.488 ± 0.013 mPa·s
303.15 K, 101.33 kPa, x1 = 0.6876
  viscosity: 0.514 ± 0.013 mPa·s
303.15 K, 101.33 kPa, x1 = 0.8278
  viscosity: 0.54 ± 0.014 mPa·s
303.16 K, 101 kPa, x1 = 0.1041
  viscosity: 0.326 ± 0.009 mPa·s
303.16 K, 101 kPa, x1 = 0.1842
  viscosity: 0.352 ± 0.009 mPa·s
303.16 K, 101 kPa, x1 = 0.2689
  viscosity: 0.381 ± 0.01 mPa·s
303.16 K, 101 kPa, x1 = 0.3733
  viscosity: 0.424 ± 0.011 mPa·s
303.16 K, 101 kPa, x1 = 0.5487
  viscosity: 0.488 ± 0.013 mPa·s
303.16 K, 101 kPa, x1 = 0.6876
  viscosity: 0.514 ± 0.014 mPa·s
303.16 K, 101 kPa, x1 = 0.8278
  viscosity: 0.54 ± 0.014 mPa·s
303.55 K, 101 kPa, x1 = 0.75
  viscosity: 0.5427 ± 0.014 mPa·s
303.65 K, 101 kPa, x1 = 0.5
  viscosity: 0.4779 ± 0.013 mPa·s
308.15 K, 101 kPa, x2 = 0.112
  viscosity: 0.487 ± 0.005 mPa·s
308.15 K, 101 kPa, x2 = 0.2
  viscosity: 0.482 ± 0.005 mPa·s
308.15 K, 101 kPa, x2 = 0.3098
  viscosity: 0.467 ± 0.005 mPa·s
308.15 K, 101 kPa, x2 = 0.415
  viscosity: 0.446 ± 0.005 mPa·s
308.15 K, 101 kPa, x2 = 0.502
  viscosity: 0.426 ± 0.005 mPa·s
308.15 K, 101 kPa, x2 = 0.6075
  viscosity: 0.398 ± 0.004 mPa·s
308.15 K, 101 kPa, x2 = 0.715
  viscosity: 0.365 ± 0.004 mPa·s
308.15 K, 101 kPa, x2 = 0.81
  viscosity: 0.336 ± 0.004 mPa·s
308.15 K, 101 kPa, x2 = 0.9075
  viscosity: 0.312 ± 0.004 mPa·s
311.65 K, 101 kPa, x1 = 0.75
  viscosity: 0.5052 ± 0.013 mPa·s
313.15 K, 101 kPa, x1 = 0.157
  viscosity: 0.3324 ± 0.009 mPa·s
313.15 K, 101 kPa, x1 = 0.25
  viscosity: 0.366 ± 0.0098 mPa·s
313.15 K, 101 kPa, x1 = 0.362
  viscosity: 0.394 ± 0.011 mPa·s
313.15 K, 101 kPa, x1 = 0.483
  viscosity: 0.4257 ± 0.011 mPa·s
313.15 K, 101 kPa, x1 = 0.609
  viscosity: 0.4577 ± 0.012 mPa·s
313.15 K, 101 kPa, x1 = 0.824
  viscosity: 0.4867 ± 0.013 mPa·s
313.85 K, 101 kPa, x1 = 0.5
  viscosity: 0.4341 ± 0.012 mPa·s
321.65 K, 101 kPa, x1 = 0.75
  viscosity: 0.4644 ± 0.012 mPa·s
